Measured values taken from ChEMBL document CHEMBL1159133, “A cembranolide diterpene farnesyl protein transferase inhibitor from the marine soft coral Lobophytum cristagalli” (Bioorg Med Chem Lett, 1996).
pIC50, pKi: −log10 of the molar value.

Experiments:
[1] = molecular target: Geranylgeranyl transferase type I (Homo sapiens, UniProt P49354+P53609); test: Inhibitory activity against recombinant human Geranylgeranyl transferase type I; type: protein-complex assay
[2] = molecular target: T1, Protein farnesyltransferase (Homo sapiens, UniProt P49354+P49356); test: Inhibition of recombinant human farnesyl protein transferase; type: protein-complex assay
[3] = molecular target: T1, Protein farnesyltransferase; test: Kinetic parameter for inhibition of farnesyl protein transferase; type: protein-complex assay
[4] = molecular target: T1, Protein farnesyltransferase; test: Percent inhibition of H-Ras processing in COS cells at 5.3 uM; type: cell-based

Structure (SMILES): C=C1C(=O)O[C@H]2[C@H]1[C@@H](OC(C)=O)C/C(C)=C/CC/C(C)=C/CC[C@@]1(C)O[C@H]21
- pIC50 [1]: 5.28
- pIC50 [2]: 6.82
- pKi [3]: 6.77
- inhibition [4]: 26%
